Measurements reported in patent publication US20240279227A1, “FUSED HETEROCYCLIC DERIVATIVES” (Janssen Sciences Ireland Unlimited Company, priority 2021, published 2024).

Key:
[1] = Human liver microsome stability; format: in vitro ADME; conditions: human, pooled human liver microsomes, pH 7.4, pooled human liver microsomes 0.5 mg/mL, 1 μM compound, NADPH 1 mM, pH 7.4, 37° C., 0-60 min; read-out: HLM Metabolism t1/2
In short: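 Pooled human liver microsomes (0.5 mg/mL) incubated at 37 °C with 1 μM compound in 0.1 M phosphate pH 7.4, 1 mM MgCl2; 1 mM NADPH starts reaction. Samples quenched in acetonitrile at 0–60 min, analysed by LC-MS against internal standard; half-life from slope of ln peak-area ratio versus time.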

HBV = assay: Anti-HBV activity in HepG2.117 cell line (intracellular HBV DNA, real-time PCR); format: cell-based, hepatitis B virus; conditions: HepG2.117 cells, HBV replication induced, 3 days of treatment, intracellular HBV DNA by real-time PCR
In short: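 HepG2.117 cells (Tet-off, doxycycline-free HBV replication) induced for HBV replication, then exposed to serially diluted compound for 3 days. Intracellular HBV DNA quantified by real-time PCR with HBV-specific primers and probe.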

[2] = Cytotoxicity, ATPlite Luminescence Assay; format: cell-based, human; conditions: human, HepG2 or HepG2.117 cells, 3-days incubation unless marked with *, ATPlite viability
In short: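 Luminescent ATP quantitation served as the viability endpoint following a 3- or 4-day incubation with test compounds.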

[3] = Hepatitis B virus, HepG2.117, 72 h

| SMILES | half-life at 1 μM [1] | EC50 (HBV; [3]) | CC50 [2] | EC50 (HBV) |
| --- | --- | --- | --- | --- |
| CNC(=O)[C@@H]1CN([C@@H](C)c2ccc(S(C)(=O)=O)cc2)C(=O)c2c3c(nn21)C[C@@H](C)N(C(=O)c1ccc(Cl)c(Cl)c1)C3 [Compound 18B, (3R,7S)-2-(3,4-Dichlorobenzoyl)-N,3-dimethyl-9-((S)-1-(4-(methylsulfonyl)phenyl)ethyl)-10-oxo-1,2,3,4,7,8,9,10-octahydropyrido[4′,3′:3,4]pyrazolo[1,5-a]pyrazine-7-carboxamide] | > 3 h | 0.037 µM | > 50 µM | – |
| CNC(=O)[C@@H]1CN([C@H](C)c2ccc(S(C)(=O)=O)cc2)C(=O)c2c3c(nn21)C[C@@H](C)N(C(=O)c1ccc(Cl)c(Cl)c1)C3 [Compound 18A, (3R,7S)-2-(3,4-Dichlorobenzoyl)-N,3-dimethyl-9-((R)-1-(4-(methylsulfonyl)phenyl)ethyl)-10-oxo-1,2,3,4,7,8,9,10-octahydropyrido[4′,3′:3,4]pyrazolo[1,5-a]pyrazine-7-carboxamide] | > 3 h | 0.597 µM | > 50 µM | – |
| CNC(=O)[C@@H]1CN(C(C)c2ccc(OC)nc2)C(=O)c2c3c(nn21)C[C@@H](C)N(C(=O)c1ccc(Cl)c(Cl)c1)C3 (single isomer, unassigned) [Compound 31A, (3R,7S)-2-(3,4-Dichlorobenzoyl)-9-((R*)-1-(6-methoxypyridin-3-yl)ethyl)-N,3-dimethyl-10-oxo-1,2,3,4,7,8,9,10-octahydropyrido[4′,3′:3,4]pyrazolo[1,5-a]pyrazine-7-carboxamide] | > 3 h | – | > 50 µM | 0.066 µM |
| CNC(=O)[C@@H]1CN(Cc2ccc(OC(F)F)cc2)C(=O)c2c3c(nn21)C[C@@H](C)N(C(=O)c1ccc(Cl)c(Cl)c1)C3 [Compound 17, (3R,7S)-2-(3,4-Dichlorobenzoyl)-9-(4-(difluoromethoxy)benzyl)-N,3-dimethyl-10-oxo-1,2,3,4,7,8,9,10-octahydropyrido[4′,3′:3,4]pyrazolo[1,5-a]pyrazine-7-carboxamide] | > 3 h | 0.036 µM | 39.1 µM | – |
| CNC(=O)[C@@H]1CN(Cc2ccc(OC(F)F)cc2)C(=O)c2c3c(nn21)C[C@@H](C)N(C(=O)c1ccc(Cl)c(C(F)(F)F)c1)C3 [Compound 28, (3R,7S)-2-(4-Chloro-3-(trifluoromethyl)benzoyl)-9-(4-(difluoromethoxy)benzyl)-N,3-dimethyl-10-oxo-1,2,3,4,7,8,9,10-octahydropyrido[4′,3′:3,4]pyrazolo[1,5-a]pyrazine-7-carboxamide] | > 3 h | 0.019 µM | 29.5 µM | – |
| CNC(=O)[C@@H]1CN(C(C)c2ccc(C(F)F)nc2)C(=O)c2c3c(nn21)C[C@@H](C)N(C(=O)c1ccc(Cl)c(Cl)c1)C3 (single isomer, unassigned) [Compound 36A, (3R,7S)-2-(3,4-Dichlorobenzoyl)-9-((R*)-1-(6-(difluoromethyl)pyridin-3-yl)ethyl)-N,3-dimethyl-10-oxo-1,2,3,4,7,8,9,10-octahydropyrido[4′,3′:3,4]pyrazolo[1,5-a]pyrazine-7-carboxamide] | > 3 h | 0.086 µM | > 50 µM | – |
| CNC(=O)[C@@H]1CN(C(C)c2cccc(Cl)n2)C(=O)c2c3c(nn21)C[C@@H](C)N(C(=O)c1ccc(Cl)c(Cl)c1)C3 (single isomer, unassigned) [Compound 38A, (3R,7S)-9-((R*)-1-(6-Chloropyridin-2-yl)ethyl)-2-(3,4-dichlorobenzoyl)-N,3-dimethyl-10-oxo-1,2,3,4,7,8,9,10-octahydropyrido[4′,3′:3,4]pyrazolo[1,5-a]pyrazine-7-carboxamide] | > 3 h | 0.068 µM | > 50 µM | – |
